Data set [1] is described as follows: Displacement of [125]I-CCK-8 from CCK-B receptor in guinea pig cerebral cortex after 2 hrs by gamma counting. It is filed as tissue-based, Cavia porcellus.
Data set [2] concerns the target T1, Cholecystokinin receptor type A (Rattus norvegicus, UniProt P30551).
T1 sequence (P30551 whole entry): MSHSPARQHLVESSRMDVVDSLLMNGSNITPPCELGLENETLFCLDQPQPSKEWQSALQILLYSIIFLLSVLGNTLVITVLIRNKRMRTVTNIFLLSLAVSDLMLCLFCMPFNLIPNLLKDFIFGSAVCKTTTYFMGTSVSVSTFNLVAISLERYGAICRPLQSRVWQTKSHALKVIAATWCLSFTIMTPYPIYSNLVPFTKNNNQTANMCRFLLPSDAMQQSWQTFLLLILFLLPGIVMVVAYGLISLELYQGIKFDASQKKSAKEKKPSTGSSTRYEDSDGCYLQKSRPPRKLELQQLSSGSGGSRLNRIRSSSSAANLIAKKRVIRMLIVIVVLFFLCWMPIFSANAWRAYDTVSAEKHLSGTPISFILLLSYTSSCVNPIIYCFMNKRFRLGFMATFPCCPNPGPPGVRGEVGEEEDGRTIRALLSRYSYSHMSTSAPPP
Description: Displacement of [125]I-CCK-8 from CCK-A receptor in rat pancreatic membrane after 2 hrs by gamma counting. The class given is cell membranes.

Data set [3] in a line: Antiproliferative activity against human PANC cells assessed as reduction in cell viability after 3 days by MTT assay. The class given is functional, cell-based. The following applies: 72 h.
The test system of data set [4] is MAC13. Put plainly: Antiproliferative activity against mouse MAC13 cells assessed as reduction in cell viability after 3 days by MTT assay. The class given is functional, cell-based. The following applies: MAC13, 72 h.
In data set [5] the test system is AGS. Put plainly: Antiproliferative activity against human AGS cells assessed as reduction in cell viability after 3 days by MTT assay. The class given is functional, cell-based. The note with it: 72 h.
In data set [6] the target is T2, Cholecystokinin receptor type A (Homo sapiens) (UniProt P32238).
T2 sequence (whole entry): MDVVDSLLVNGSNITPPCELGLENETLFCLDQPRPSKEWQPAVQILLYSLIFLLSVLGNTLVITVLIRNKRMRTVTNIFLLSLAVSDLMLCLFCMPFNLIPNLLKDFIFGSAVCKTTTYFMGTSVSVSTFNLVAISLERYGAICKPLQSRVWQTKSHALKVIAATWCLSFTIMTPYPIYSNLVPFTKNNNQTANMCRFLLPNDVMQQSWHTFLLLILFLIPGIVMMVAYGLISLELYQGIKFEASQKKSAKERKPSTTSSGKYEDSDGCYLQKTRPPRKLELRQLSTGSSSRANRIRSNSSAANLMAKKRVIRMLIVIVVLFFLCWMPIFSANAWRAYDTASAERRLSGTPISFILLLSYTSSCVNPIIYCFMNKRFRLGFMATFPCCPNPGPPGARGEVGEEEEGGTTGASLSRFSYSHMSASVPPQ
Put plainly: […] activity at CCK1 receptor (unknown origin).

The nature of data set [7]: Antiproliferative activity against human MiaPaCa cells assessed as reduction in cell viability after 3 days by MTT assay. It is filed as functional, cell-based. The note with it: MIA PaCa-2, 72 h.
Data set [8] can be described thus: Antiproliferative activity against human U373MG cells assessed as reduction in cell viability after 3 days by MTT assay. The following applies: U373 MG, 72 h. The class given is functional, cell-based, U-373MG ATCC.
Data set [9] relates to MAC16. Put plainly: Antiproliferative activity against mouse MAC16 cells assessed as reduction in cell viability after 3 days by MTT assay. It is filed as functional, cell-based. The following applies: MAC16, 72 h.
The test system of data set [10] is MAC16. Put plainly: Antimetastatic activity against mouse MAC16 cells xenografted in po dosed NSG mouse assessed as reduction of cell migration to lung measured thrice weekly after compound dosage. The class given is functional, organism-based.
Data set [11] deals with MiaPaCa. Description: Antitumor activity against human MiaPaCa cells xenografted in po dosed NSG mouse measured thrice weekly after compound dosage. It is filed as functional, organism-based.
A short description of data set [12]: Oral bioavailability in rat. The class given is ADME, organism-based. The following applies: in vivo.
Data set [13] relates to MAC16. Put plainly: Antitumor activity against mouse MAC16 cells xenografted in po dosed NSG mouse measured thrice weekly after compound dosage. The class given is functional, organism-based.
The nature of data set [14]: Half life in rat. It is filed as ADME, organism-based. The note with it: in vivo.
Data set [15] in a line: Potency index, ratio of lorglumide IC50 to compound IC50 for human MiaPaCa cells. It is filed as functional.
Data set [16] addresses T3, Cholecystokinin receptor type A (Cavia porcellus) (UniProt Q63931).
T3 sequence (whole entry): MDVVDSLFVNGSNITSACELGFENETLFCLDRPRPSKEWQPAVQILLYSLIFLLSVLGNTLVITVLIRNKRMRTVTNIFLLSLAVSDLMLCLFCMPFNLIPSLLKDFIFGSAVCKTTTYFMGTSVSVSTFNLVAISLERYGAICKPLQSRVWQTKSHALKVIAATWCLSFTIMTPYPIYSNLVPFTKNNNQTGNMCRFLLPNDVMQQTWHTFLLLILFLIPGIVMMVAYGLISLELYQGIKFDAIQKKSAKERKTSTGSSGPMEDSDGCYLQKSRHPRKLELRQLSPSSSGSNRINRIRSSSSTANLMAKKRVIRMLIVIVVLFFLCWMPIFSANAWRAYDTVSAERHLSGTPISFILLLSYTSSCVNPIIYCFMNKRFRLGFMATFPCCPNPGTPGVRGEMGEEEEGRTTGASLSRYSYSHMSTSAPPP
Put plainly: Insurmountable antagonist activity at CCK1 receptor in guinea pig bladder assessed as inhibition of CCK8s induced contraction preincubated 10 mins followed by CCK8s addition.

Data set [17] concerns the target T4, Cholecystokinin receptor type A (Rattus norvegicus) (UniProt P30551).
T4 sequence (whole entry): T1 sequence (P30551 whole entry)
Description: Antagonist activity at CCK1 receptor in rat duodenum assessed as inhibition of electrically stimulated contraction.

Molecules are shown by their SMILES. The source made the active and inactive calls. No cut-off for these calls is given here. Bounds are passed on as bounds.

In the case of `O=C1C=C(Cl)C(O)(c2ccc(Cl)cc2)N1C1CC1` (stereo not drawn), the figures for the IC50 in data set [1] and in [2] were over 10000 nM and 4000 nM, respectively.
Take `CN1C(=O)C(NC(=O)c2cc3ccccc3[nH]2)N=C(c2ccccc2)c2ccccc21` (stereo not drawn): the IC50 is 480 nM in data set [3]; 1100 nM in [4]; over 5000 nM in data set [5]; 1200 nM in [7]; over 5000 nM in [8]; 1000 nM in [9]. Also, the result in [6] was Active.
Consider `CC(C)CN1C(=O)C=C(Cl)C1(O)c1ccc(F)cc1` (stereo not drawn), for which the IC50 stood at 18 nM in data set [3]; 508 nM in data set [4]; 222 nM in data set [5]; 750 nM in [1]; 11 nM in data set [7]; 665 nM in data set [8]. Besides, the IC50 stood at 76 nM in data set [9] and 12 nM in [2]. Further, the result in data set [10] was Active. In addition, the TGI entry in [11] and in data set [13] was “Active” each time. The bioavailability in data set [12] amounted to 98%. The half-life in data set [14] is 3.5 h.
For `O=C1C=C(Cl)C(O)(c2ccc(Cl)cc2)N1C1CCCC1` (stereo not drawn), the IC50 in data set [1] turned out to be 10000 nM.
On to `CCCCCN(CCCCC)C(=O)C(CCC(=O)O)NC(=O)c1ccc(Cl)c(Cl)c1` (stereo not drawn) [LORGLUMIDE SODIUM], for which the IC50 in data set [3] is 316 nM; in data set [4] it was 421 nM; in data set [5], 289 nM; in [1] it was over 10000 nM; in [7] it was 425 nM; in data set [8], over 5000 nM. In addition, the IC50 came out at 861 nM in data set [9] and 170 nM in data set [2].
In the case of `CC(C)N1C(=O)C=C(Cl)C1(O)c1ccc(Cl)cc1` (stereo not drawn), the IC50 in data set [1] was 3700 nM; in data set [2], 300 nM.
Turning to `O=C1C=C(Cl)C(O)(c2ccccc2)N1C1CCCCC1` (stereo not drawn), the IC50 in data set [1] and in data set [2] was over 10000 nM in each case.
Regarding `O=C1C=C(Cl)C(O)(c2ccccc2)N1C1CCCC1` (stereo not drawn), in [1], the IC50 came to 840 nM.
Consider `O=C1C=C(Cl)C(O)(c2ccccc2)N1C1CC1` (stereo not drawn), for which the IC50 in data set [1] was over 10000 nM; in [2], 7500 nM.
On the same counts, the results for `CC(C)(C)N1C(=O)C=C(Cl)C1(O)c1ccccc1` (stereo not drawn) are 900 nM and 120 nM.
On the same counts, the results for `O=C1C=C(Cl)C(O)(c2ccccc2)N1c1ccccc1` (stereo not drawn) are over 10000 nM and over 10000 nM.
On the same counts, the results for `CN1C(=O)C=C(Cl)C1(O)c1ccc(Cl)cc1` (stereo not drawn) are over 10000 nM and 2000 nM.
Take `CC(C)CN1C(=O)C=C(Cl)C1(O)c1ccccc1` (stereo not drawn): the 50% inhibitory concentration (IC50) amounted to 27 nM in data set [3]; 536 nM in data set [4]; 262 nM in [5]; 1200 nM in data set [1]; 15 nM in [7]; 765 nM in data set [8]. For the same molecule, the IC50 was 96 nM in data set [9] and 20 nM in data set [2]. Moreover, in data set [10], the outcome was Active. The TGI entry in data set [11] and in data set [13] was “Active” in each case. For the same molecule, the “Ratio IC50” value in data set [15] turned out to be 20.
For the molecule `CN1C(=O)C=C(Cl)C1(O)c1ccccc1` (stereo not drawn), the IC50 in [1] is over 10000 nM; in data set [2], 2500 nM.
For `CC(C)N1C(=O)C=C(Cl)C1(O)c1ccccc1` (stereo not drawn), in that order: 900 nM and 200 nM.
On the same counts, the results for `CCCCCCN1C(=O)C=C(Cl)C1(O)c1ccccc1` (stereo not drawn) are over 10000 nM and 4500 nM.
For the molecule `CC(C)CN1C(=O)C=C(Cl)C1(O)c1ccc(Cl)cc1` (stereo not drawn), the IC50 in [3] amounted to 22 nM; in [4], 526 nM; in data set [5], 242 nM; in data set [1], 400 nM; in data set [7] it was 13 nM; in data set [8], 475 nM. Moreover, the IC50 worked out at 86 nM in data set [9] and 8 nM in data set [2]. In addition, the inhibition result in data set [16] and in data set [17] was “Dose-dependent effect” each time.
For the molecule `CCCCCCN1C(=O)C=C(Cl)C1(O)c1ccc(Cl)cc1` (stereo not drawn), the IC50 in data set [1] is over 10000 nM; in [2], 3600 nM.
On to `Cc1cccc(NC(=O)N[C@@H]2N=C(c3ccccc3)c3ccccc3N(C)C2=O)c1` [L-365260], for which the IC50 in [3] is over 1000 nM; in data set [4], over 5000 nM; in [5] it was 675 nM; in [7], over 5000 nM; in data set [8], 541 nM; in data set [9] it was over 5000 nM.
With `O=C1C=C(Cl)C(O)(c2ccccc2)N1Cc1ccccc1` (stereo not drawn), the IC50 in data set [3] was 674 nM; in data set [4], over 1000 nM; in data set [5], 53 nM; in data set [1], 22 nM; in data set [7], 230 nM; in data set [8], 23 nM. Further, the IC50 in data set [9] is over 1000 nM; in [2], 800 nM.
